Patent EP0517347A1, “New combinations for the treatment of Parkinsons disease, containing NMDA-antagonists” (SCHERING AKTIENGESELLSCHAFT, priority 1991, dated 1992)

Tests used:
[1] = test system: unilateral Substantia nigralädierten Ratten; assay: Induction of contralateral rotations in rats with unilateral 6-OHDA lesion of the substantia nigra (automated rotometer); assay type: in vivo, Wistar-Ratten
Procedure: Die erfindungsgemäße Wirkung wird am Beispiel des CPP dargestellt: Auslösung von kontralateralen Rotationen an unilateral Substantia nigralädierten Ratten. Männliche Wistar-Ratten wurden 8 Monate vor dem Experiment durch Injektion von 16 µg 6-Hydroxydopamin (6-OHDA) in die linke Substantia nigra lädiert. Die Messung der Rotationen erfolgte in automatisierten Rotometern. Die Tiere wurden in Plexiglas-Halbschalen (Durchmesser 40 cm) gesetzt und mechanisch mit einem Winkelschrittgeber verbunden. Die Bewegungen mit und entgegen dem Uhrzeigersinn wurden getrennt in 10-Minuten-Intervallen für 2 Stunden erfasst.
Die Ergebnisse dieser Versuche lassen sich wie folgt zusammenfassen: Die mit Lösungsmitteln behandelten Tiere zeigen kaum spontane Rotationen.

[2] = test system: MPTP-behandelten Pinselohräffchen; assay: Experimental Parkinson syndrome induced by the neurotoxin MPTP in marmosets; assay type: in vivo
Procedure: In gleicher Weise wurden die erfindungsgemäßen Verbindungen am Pinselohräffchen untersucht, bei denen durch das Neurotoxin MPTP ein experimentelles Parkinsonsyndrom erzeugt wurde.
Im gleichen Modell wurde CPP (0.1, 0.39, 1.56 mg/kg i.p.) mit den direkten Dopaminagonisten Apomorphin (0.05 mg/kg i.p. ) oder Lisurid (0.1 mg/kg i.p. ) geprüft (Abb. 3 und 4).

Row | SMILES | durch L-Dopa induzierte Rotationen ([1]; CPP 0,025, 0,39, 1,56 and 6,25 mg/kg i.p. added to L-Dopa 25 mg/kg i.p. + Benserazid 100 mg/kg i.p., Abb. 1) | Zahl der Rotationen in 2 Stunden ([1]; highest dose of CPP (6,25 mg/kg i.p.) plus L-Dopa + Benserazid, compared with L-Dopa treatment, Abb. 1) | Wirkung von L-Dopa und Benserazid ([2]; CPP 0,1, 0,39, 1,56 mg/kg i.p. added to L-Dopa 20 mg/kg i.p. + Benserazid 20 mg/kg i.p., Abb. 2) | kombinierte Behandlung mit Apomorphin ([2]; CPP 0.1, 0.39, 1.56 mg/kg i.p. with Apomorphin 0.05 mg/kg i.p., analysis of variance and Tukey test, p < 0.0.1, Abb. 3 und 4) | kombinierte Behandlung mit Lisurid ([2]; CPP 0.1, 0.39, 1.56 mg/kg i.p. with Lisurid 0.1 mg/kg i.p., analysis of variance and Tukey test, p < 0.0.1, Abb. 3 und 4) | Rotationsbewegungen ([1]; L+Dopa 25 mg/kg i.p. and Benserazid 100 mg/kg i.p., without CPP, 6-OHDA-lesioned rats)
1 | O=C(O)C1CN(CCCP(=O)(O)O)CCN1 (racemic) [CPP, 3-((±)-2-carboxy-piperazin-4-yl)-propyl-1-phosphonsäure] | dosisabhängig verstärkt | signifikant von der L-Dopa Behandlung verschieden | dosisabhängig verstärkt | signifikantem Synergismus | signifikantem Synergismus | –
2 | N[C@@H](Cc1ccc(O)c(O)c1)C(=O)O [L+Dopa] | – | – | – | – | – | leichte Rotationsbewegungen
